The values below come from patent US20240360146A1, “BRUTON'S TYROSINE KINASE AND MUTANT DEGRADER, COMPOSITION AND APPLICATION THEREOF” (HANGZHOU HEALZEN THERAPEUTICS CO., LTD., priority 2021, published 2024).

What all share (assay type): cell-based
For one test, the target named is T1, BTK (Homo sapiens, UniProt Q06187).
T1 construct: endogenous in cells; host or cells: Mino cells
Description: BTK degradation activity test in Mino cells. The settings on record: 16 h incubation, Western blot or Elisa. In short, it runs like this:
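DC50 derived by curve fitting of BTK degradation rates versus untreated control across compound concentrations. Mino cells were exposed for 16 h; BTK levels in lysates, normalised via BCA protein, measured by Western blot or ELISA.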

The test system of a further test is Mino cells. The test can be described thus: Inhibitory activity on Mino cell proliferation (MTS). The conditions noted are these: Homo sapiens, 168 h incubation. The procedure:
(§1) The anti-tumor efficacy of the compounds was tested by measuring their inhibitory effects on OCI-LY10 and Mino cell proliferation. OCI-LY10 and Mino cells were cultured in RPMI-1640 medium containing 10% fetal calf serum. OCI-LY10 and Mino cells were digested, inoculated in a 96-well plate at a cell concentration of 10000 cells/well, and incubated overnight at 37° C., 5% CO2. Compounds of different concentrations (1000 nM, 4-fold dilution, 8 points) were added to the 96-well plate and incubated for 72 h (LY10) or 168 h (Mino) at 37° C. and 5% CO2, and then 20 uL of MTS was added to each well. After incubation for 2 h, 25 μl of 10% SDS was added to each well to terminate the reaction. The absorbance at 490 nm and 650 nm were measured with a microplate reader. IC50 was calculated using GraphPad Prism 5.0.

In a further test the test system is OCI-LY10 cells. The test can be described thus: Inhibitory activity on OCI-LY10 cell proliferation (MTS). The settings on record: Homo sapiens, 72 h. The procedure: as §1

T1 sequence (Q06187 whole entry): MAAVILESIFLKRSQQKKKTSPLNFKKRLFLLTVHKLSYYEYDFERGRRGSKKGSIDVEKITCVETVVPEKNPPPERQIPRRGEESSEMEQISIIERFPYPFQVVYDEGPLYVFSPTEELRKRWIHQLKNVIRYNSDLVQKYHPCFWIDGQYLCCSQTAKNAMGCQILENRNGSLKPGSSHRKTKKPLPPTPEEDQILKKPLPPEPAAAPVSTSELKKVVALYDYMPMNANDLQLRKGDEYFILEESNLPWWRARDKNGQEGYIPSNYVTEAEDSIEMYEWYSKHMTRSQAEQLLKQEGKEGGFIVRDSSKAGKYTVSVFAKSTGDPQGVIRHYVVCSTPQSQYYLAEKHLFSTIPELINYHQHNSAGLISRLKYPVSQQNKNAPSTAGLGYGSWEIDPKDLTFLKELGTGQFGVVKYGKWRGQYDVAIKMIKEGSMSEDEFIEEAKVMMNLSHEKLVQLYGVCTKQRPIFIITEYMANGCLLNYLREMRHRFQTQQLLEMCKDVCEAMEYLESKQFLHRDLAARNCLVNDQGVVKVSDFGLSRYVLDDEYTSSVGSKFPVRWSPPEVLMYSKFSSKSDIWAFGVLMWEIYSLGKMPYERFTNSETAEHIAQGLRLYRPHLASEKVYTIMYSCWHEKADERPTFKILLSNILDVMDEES

`CN1CCN([C@@H]2CCCN(c3ncc(C(N)=O)c(Nc4ccc(N5CCN(CC6CCN(c7ccc8c(c7)C(=O)N(C7CCC(=O)NC7=O)C8=O)C6)CC5)cc4)n3)C2)C1=O` (stereo partly drawn) [Compound 115, 4-((4-(4-((1-(2-(2,6-dioxopiperidin-3-yl)-1,3-dioxoisoindolin-5-yl)pyrrolidin-3-yl)methyl)piperazin-1-yl)phenyl)amino)-2-((R)-3-(3-methyl-2-oxoimidazolin-1-yl)piperidin-1-yl)pyrimidin-5-carboxamide]: the DC50 (as a rule, the midpoint of the concentration-degradation curve) on BTK is under 1 nM. The IC50 (as a rule, the concentration that inhibits the measured activity by half) in the test on Mino cells came to 5.97 nM; in the test with OCI-LY10 cells, 0.59 nM.
On the same counts, the results for `CN1CCN([C@@H]2CCCN(c3ncc(C(N)=O)c(Nc4ccc(C5CCN(CC6CCN(c7ccc8c(c7)C(=O)N(C7CCC(=O)NC7=O)C8=O)C6)CC5)cc4)n3)C2)C1=O` (stereo partly drawn) [Compound 116, 4-((4-(1-((1-(2-(2,6-dioxopiperidin-3-yl)-1,3-dioxoisoindolin-5-yl)pyrrolidin-3-yl)methyl)piperidin-4-yl)phenyl)amino)-2-((R)-3-(3-methyl-2-oxoimidazolin-1-yl)piperidin-1-yl)pyrimidin-5-carboxamide] are under 1 nM, 1.34 nM and 0.11 nM.
On the same counts, the results for `CN1CCN([C@@H]2CCCN(c3ncc(C(N)=O)c(Nc4ccc(C5CCN(CC6CCN(c7ccc8c(c7)C(=O)N(C7CCC(=O)NC7=O)C8=O)CC6)CC5)cc4)n3)C2)C1=O` (stereo partly drawn) [Compound 117, 4-((4-(1-((1-(2-(2,6-dioxopiperidin-3-yl)-1,3-dioxoisoindolin-5-yl)piperidin-4-yl)methyl)piperidin-4-yl)phenyl)amino)-2-((R)-3-(3-methyl-2-oxoimidazolin-1-yl)piperidin-1-yl)pyrimidin-5-carboxamide] are under 1 nM, 3.08 nM and 0.33 nM.
`CN1CCN(C2CC3CC2N(c2cnc(C(N)=O)c(Nc4ccc(C5CCN(CC6CCN(c7ccc8c(c7)C(=O)N(C7CCC(=O)NC7=O)C8=O)CC6)CC5)cc4)n2)C3)C1=O` (stereo not drawn) [Compound 118, 3-((4-(1-((1-(2-(2,6-dioxopiperidin-3-yl)-1,3-dioxoisoindolin-5-yl)piperidin-4-yl)methyl)piperidin-4-yl)phenyl)amino)-5-(6-(3-methyl-2-oxoimidazolin-1-yl)-2-azabicyclo[2.2.1]heptan-2-yl)pyrazin-2-carboxamide] showed a DC50 on BTK of under 1 nM. In addition, the IC50 with Mino cells worked out at 10.7 nM; in the test on OCI-LY10 cells it was 0.27 nM.
On the same counts, the results for `CN1CCN([C@@H]2CCCN(c3nnc(C(N)=O)c(Nc4ccc(N5CCC(CN6CCN(c7ccc8c(c7)C(=O)N(C7CCC(=O)NC7=O)C8=O)CC6)CC5)cc4)n3)C2)C1=O` (stereo partly drawn) [Compound 119, 5-((4-(4-((4-(2-(2,6-dioxopiperidin-3-yl)-1,3-dioxoisoindolin-5-yl)piperazin-1-yl)methy 1)piperidin-1-yl)phenyl)amino)-3-((R)-3-(3-methyl-2-oxoimidazolin-1-yl)piperidin-1-yl)-1,2,4-triazin-6-carboxamide] are under 1 nM, 8.09 nM and 0.38 nM.
On the same counts, the results for `CN1CCN([C@@H]2CCCN(c3nnc(C(N)=O)c(Nc4ccc(C5CCN(CC6(C)CCN(c7ccc8c(c7)C(=O)N(C7CCC(=O)NC7=O)C8=O)C6)CC5)cc4)n3)C2)C1=O` (stereo partly drawn) [Compound 120, 5-((4-(1-((1-(2-(2,6-dioxopiperidin-3-yl)-1,3-dioxoisoindolin-5-yl)-3-methylpyrrolidin-3-yl)methyl)piperidin-4-yl)phenyl)amino)-3-((R)-3-(3-methyl-2-oxoimidazolin-1-yl)piperidin-1-yl)-1,2,4-triazin-6-carboxamide] are under 1 nM, 1.76 nM and 0.21 nM.
For the molecule `CN1CCN([C@@H]2CCCN(c3nnc(C(N)=O)c(Nc4ccc(C5CCN(CC6(F)CCN(c7ccc8c(c7)C(=O)N(C7CCC(=O)NC7=O)C8=O)C6)CC5)cc4)n3)C2)C1=O` (stereo partly drawn) [Compound 121, 5-((4-(1-((1-(2-(2,6-dioxopiperidin-3-yl)-1,3-dioxoisoindolin-5-yl)-3-fluoropyrrolidin-3-yl)methyl)piperidin-4-yl)phenyl)amino)-3-((R)-3-(3-methyl-2-oxoimidazolin-1-yl)piperidin-1-yl)-1,2,4-triazin-6-carboxamide], the DC50 on BTK was under 1 nM. The results for the concentration for half-maximal inhibition (IC50) in the test on Mino cells and in the test on OCI-LY10 cells were 3.75 nM and 0.74 nM, respectively.
On the same counts, the results for `CN1CCN([C@@H]2CCCN(c3nnc(C(N)=O)c(Nc4ccc(C5CCN(CC6CCN(c7ccc8c(c7)C(=O)N(C7CCC(=O)NC7=O)C8=O)C6)CC5)cc4)n3)C2)C1=O` (stereo partly drawn) [Compound 124, 5-((4-(1-((1-(2-(2,6-dioxopiperidin-3-yl)-1,3-dioxoisoindolin-5-yl)pyrrolidin-3-yl)methyl)piperidin-4-yl)phenyl)amino)-3-((R)-3-(3-methyl-2-oxoimidazolin-1-yl)piperidin-1-yl)-1,2,4-triazin-6-carboxamide] are under 1 nM, 4.95 nM and under 0.26 nM.
For `CN1CCN([C@@H]2CCCN(c3nnc(C(N)=O)c(Nc4ccc(C5CCN(C(=O)C6CCN(c7ccc8c(c7)C(=O)N(C7CCC(=O)NC7=O)C8=O)C6)CC5)cc4)n3)C2)C1=O` (stereo partly drawn) [Compound 127, 5-((4-(1-(1-(2-(2,6-dioxopiperidin-3-yl)-1,3-dioxoisoindolin-5-yl)pyrrolidin-3-carbonyl)piperidin-4-yl)phenyl)amino)-3-((R)-3-(3-methyl-2-oxoimidazolin-1-yl)piperidin-1-yl)-1,2,4-triazin-6-carboxamide] the same measures were under 1 nM, 2.04 nM and 0.39 nM.
For `CN1CCN([C@@H]2CCCN(c3nnc(C(N)=O)c(Nc4ccc(C5CCN(CC6CCN(c7ccc8c(c7)C(=O)N(C7CCC(=O)NC7=O)C8=O)CC6)CC5)c(F)c4)n3)C2)C1=O` (stereo partly drawn) [Compound 129, 5-((4-(1-((1-(2-(2,6-dioxopiperidin-3-yl)-1,3-dioxoisoindolin-5-yl)piperidin-4-yl)methyl)piperidin-4-yl)-3-fluorophenyl)amino)-3-((R)-3-(3-methyl-2-oxoimidazolin-1-yl)piperidin-1-yl)-1,2,4-triazin-6-carboxamide] the same measures were under 1 nM, 3.09 nM and 0.14 nM.
In the case of `CN1C(=O)N([C@@H]2CCCN(c3nnc(C(N)=O)c(Nc4ccc(C5CCN(CC6CCN(c7ccc8c(c7)C(=O)N(C7CCC(=O)NC7=O)C8=O)CC6)CC5)cc4)n3)C2)CC12CC2` (stereo partly drawn) [Compound 138, 5-((4-(1-((1-(2-(2,6-dioxopiperidin-3-yl)-1,3-dioxoisoindolin-5-yl)piperidin-4-yl)methyl)piperidin-4-yl)phenyl)amino)-3-((R)-3-(4-methyl-5-oxo-4,6-diazaspiro[2.4]heptan-6-yl)piperidin-1-yl)-1,2,4-triazin-6-carboxamide], the DC50 on BTK was under 1 nM. Also, the figures for the IC50 in the test on Mino cells and with OCI-LY10 cells were 3.11 nM and 0.08 nM, respectively.
For `NC(=O)c1nnc(N2CCC[C@@H](N3CCN(CC(F)(F)F)C3=O)C2)nc1Nc1ccc(C2CCN(CC3CCN(c4ccc5c(c4)C(=O)N(C4CCC(=O)NC4=O)C5=O)CC3)CC2)cc1` (stereo partly drawn) [Compound 141, 5-((4-(1-((1-(2-(2,6-dioxopiperidin-3-yl)-1,3-dioxoisoindolin-5-yl)piperidin-4-yl)methyl)piperidin-4-yl)phenyl)amino)-3-((R)-3-(2-oxo-3-(2,2,2-trifluoroethyl)imidazolin-1-yl)piperidin-1-yl)-1,2,4-triazin-6-carboxamide] the same measures were under 1 nM, 3.92 nM and 2.19 nM.
Molecule `CN1CCN([C@@H]2CCCN(c3nnc(C(N)=O)c(Nc4ccc(N5CCN(CC#Cc6ccc7c(c6)n(C)c(=O)n7C6CCC(=O)NC6=O)CC5)c(F)c4)n3)C2)C1=O` (stereo partly drawn) [Compound 227, 5-((4-(4-(3-(1-(2,6-dioxopiperidin-3-yl)-3-methyl-2-oxo-2,3-dihydro-1H-benzo[d]imidazol-5-yl)propan-2-yn-1-yl)piperazin-1-yl)-3-fluorophenyl)amino)-3-((R)-3-(3-methyl-2-oxoimidazolidin-1-yl)piperidin-1-yl)-1,2,4-triazin-6-carboxamide] displayed a 50% degradation concentration (DC50) at BTK of under 1 nM. The molecule also gave an IC50 in the test on OCI-LY10 cells of 0.27 nM.
For `CN1CCN([C@@H]2CCCN(c3nnc(C(N)=O)c(Nc4ccc(C5CCN(CC6CCN(c7ccc(N8CCC(=O)NC8=O)cc7)CC6)CC5)c(F)c4)n3)C2)C1=O` [Compound 234, (R)-5-((4-(1-((1-(4-(2,4-dioxotetrahydropyrimidin-1(2H)-yl)phenyl)piperidin-4-yl)methyl)piperidin-4-yl)-3-fluorophenyl)amino)-3-(3-(3-methyl-2-oxoimidazolidin-1-yl)piperidin-1-yl)-1,2,4-triazin-6-carboxamide] the same measures were under 1 nM and 1.78 nM.
For `Cc1cc(N2CCC(CN3CCC(c4ccc(Nc5nc(N6CCC[C@@H](N7CCN(C)C7=O)C6)nnc5C(N)=O)cc4)CC3)CC2)ccc1N1CCC(=O)NC1=O` [Compound 236, (R)-5-((4-(1-((1-(4-(2,4-dioxotetrahydropyrimidin-1(2H)-yl)-3-methylphenyl)piperidin-4-yl)methyl)piperidin-4-yl)phenyl)amino)-3-(3-(3-methyl-2-oxoimidazolidin-1-yl)piperidin-1-yl)-1,2,4-triazin-6-carboxamide] the same measures were under 1 nM and 0.63 nM.
